From patent publication US12465609B2, “Methods of treating patients suffering from a disease condition or disorder that is associated with an increased glutamate level” (veriNOS operations GmbH, priority 2022, dated 2025)

What was measured:
[1] = Safety and adverse event analyses, NOSTRA III; type: in vivo
Description: Safety analyses was performed using standard descriptive methods.
The total number of treatment-emergent adverse events (TEAE) and the total number of patients with TEAEs, the total number of TEAEs related to the study drug (certain, probable, possible), the total number of patients with TEAEs related to the study drug, the total number of TEAEs and the total number of patients with serious TEAEs, the total number of patients with TEAEs leading to discontinuation of study treatment and the total number of patients with TEAEs leading to death were summarised by treatment arm.

[2] = test system: extracellular brain lactate level; assay: Brain microdialysis, extracellular cerebral lactate levels in TBI patients; type: in vivo, human
Description: (§1) To monitor the metabolic condition of the patients, extracellular brain glutamate and lactate levels were measured. In more detail, the extracellular intracerebral glutamate and lactate levels measured here is the glutamate or lactate level in brain extracellular fluid (ECF). […] The measurements of the glutamate and lactate levels was carried out using established brain microdialysis (MD) methodology as described, for example, by Chamoun et al, example. Role of extracellular glutamate measured by cerebral microdialysis in severe traumatic brain injury. J Neurosurg. 2010 September; 113(3): 564-570.
(§2) The microdialysis (MD) equipment was obtained from M Dialysis AB, Stockholm, Sweden, see www.mdialysis.com. The following equipment was used. • Cerebral MD catheters: CMA 70 • CMA 70 bolt catheter • CMA 71 high cut-off cerebral catheter • Pumps: CMA106=fixed flow rate, CMA107=flexible flow rate • Perfusion solution: Cerebral: Perfusion fluid CNS • Analyzers: CMA 600, ISCUS, ISCUSflex Time Point of MD Catheter Insertion • Aim: Obtain stable baseline values before infusing study drug • Ideal: By 14 hours after TBI or 4 hours before study drug infusion to allow for tissue adaptation, usually lasting 1-4 hours • Compromise: As soon as possible, within 4 hours after beginning study drug infusion Site of Cerebral MD Catheter Insertion • Aim: Monitor metabolic changes close to structural damage visible on routine CT scan • Contusion: Close to the contusion • Mixed lesions: Predominantly injured hemisphere • With bolt system: Right or left frontal lobe • Without bolt system: Right or left frontal/temporal/parietal area • If possible cerebral MD catheter should be placed ipsilateral to the ICP probe • Special care should be taken to avoid inducing injury to pre- and postcentral cortex • The position of the MD probe and the position of the ICP probe in the eCRF should be indicated.
(§3) The cerebral glutamate and lactate levels were recorded every 1 h up to 5 days after the start of the infusion. Absolute values were be summarized per treatment group and for each time point by means of descriptive statistics. The 95% confidence intervals for the mean were calculated (normal approximation).
(§4) For the analysis of the metabolic state, it was considered that under normal (physiological) conditions glutamate is maintained at low levels (micromolar) in the extracellular space (<2 μmol/L) and in plasma (50-100 μmol/L) to avoid excessive glutamate receptor activation. Within the different intracellular compartments glutamate is present in higher amounts (5-15 millimolar). In brain microdialysis, glutamate levels exceeding 10 μmol/L are considered elevated, higher glutamate levels are associated with worse outcome. In addition to the absolute levels, dynamic changes are also important in interpreting underlying pathology. In brain microdialysis and blood, lactate levels exceeding 2.5 millimol/L are considered pathologically elevated, reflecting insufficient metabolic/energetic stability which is further aggravated by insufficient oxygen supply.

[3] = test system: extracellular brain glutamate level; assay: Brain microdialysis, extracellular cerebral glutamate levels in TBI patients; type: in vivo, human
Description: as §1, §2, §3, §4

C[C@H](O)[C@H](O)C1CNc2nc(N)nc(N)c2N1 (mixture of isomers) [Ronopterin, 4-Amino-(6R,S)-5,6,7,8-tetrahydro-L-biopterin]
number of renal AEs ([1]; Ronopterin:placebo 11:3): 11
tolerability of study treatment ([1]; no significant new safety findings): well-tolerated
proportion of patients with ICP increased (AE) ([1]; placebo 11.7%): 23.9%
number of patients with ICP increased (AE) ([1]; placebo 13): 27 patients
number of adverse events (AEs) and serious adverse events (SAEs) compared to the placebo groups ([1]; related AE/SAEs low and comparable): slightly higher number
extracellular cerebral lactate levels ([2]; 18 to 39 years, all times to infusion, patients reaching <2.5 millimol/L (FIG. 7A)): lower brain lactate levels compared to the placebo group
extracellular cerebral lactate levels ([2]; 18 to 39 years, infusion >12 hours, a number of patients <2.5 millimol/L (FIG. 8C)): lower brain lactate levels than the placebo group
extracellular cerebral lactate levels ([2]; 18 to 39 years, infusion ≤12 hours, a number of patients <2.5 millimol/L (FIG. 8A)): lower brain lactate levels than the placebo group
extracellular cerebral lactate levels ([2]; 40 to 60 years, all times to infusion, all patients, higher than placebo (FIG. 7C)): ≥ 2.5 millimol/L
extracellular cerebral lactate levels ([2]; 40 to 60 years, infusion ≤12 hours, all patients, higher than placebo (FIG. 9A)): ≥ 2.5 millimol/L
extracellular brain lactate levels ([2]; within 120 hours after administration, stayed below threshold or only slightly elevated): < 2.5 millimol/L
extracellular cerebral glutamate level ([3]; 18 to 39 years, infusion >12 hours after TBI, majority of patients, essentially the same as placebo (FIG. 5E)): < 10 µmol/L
extracellular cerebral glutamate level ([3]; 18 to 39 years, infusion ≤12 h after TBI, all patients (FIG. 5B)): < 10 µmol/L
extracellular cerebral glutamate level ([3]; 40 to 60 years, infusion >12 hours after TBI, majority of the patients (FIG. 6B)): < 10 µmol/L
extracellular cerebral glutamate level ([3]; 40 to 60 years, infusion ≤12 h after TBI, no placebo group, not all patients <10 μmol/L (FIG. 6A)): partially lowered brain glutamate levels
extracellular brain glutamate levels after infusion ([3]; TBI patients, within 12 hours after start of the administration): less than 10 μmol/L
passage of the human blood brain barrier ([3]; inferred from Example 4): passes the human blood brain barrier
extracellular cerebral glutamate level ([3]; patients aged 18 to 39 years, all times to infusion, all patients, up to 108 hours (FIG. 4B)): < 10 µmol/L
extracellular cerebral glutamate level ([3]; patients aged 40 to 60 years, all times to infusion, majority of patients (FIG. 4E)): < 10 µmol/L
